Literature values as cited in article PMC8510358, “Common Shortcomings in Study on Radiopharmaceutical Design Research: A Case Study of ^99mTc-Labelled Methotrexate” (Molecules, 2021).

Test system: folate receptors
Parameters: method as in PMID 23851396
Details: in comparison to folic acid (FA); ref [3]

In the case of `CN(Cc1cnc2nc(N)nc(N)c2n1)c1ccc(C(=O)N[C@@H](CCC(=O)O)C(=O)O)cc1` [MTX, Methotrexate], the “affinity to folate receptors” value is given as “noticeably lower”.
